Earlier results on one compound are cited in patent US20030157104A1, “Treatment of refractory human tumors with epidermal growth factor receptor antagonists” (priority 1999, published 2003).

The test system of the data set is FGFR. The conditions noted are these: Panek et al.

Regarding `CCN(CC)CCOc1ccc(Nc2ncc3cc(-c4c(Cl)cccc4Cl)c(=O)n(C)c3n2)cc1` [PD166285, 6-(2,6-dichlorophenyl)-2-(4-(2-diethylaminoethoxy)phenylamino)-8-methyl-8H-pyrido(2,3-d)pyrimidin-7-one], the “inhibition of FGFR family of receptors” value is on record as “inhibits”.
